From patent publication US8784910B2, “Antimicrobial compositions” (Lonza Inc., priority 2002, dated 2014)

Key:
Format in all cases: cell-based
[1] = system: Staphylococcus aureus (ATCC #6538); test: Minimum Inhibitory Concentration (MIC), autodilutor, nutrient broth, 96 well plates (Example 8); settings: 72 hours at 32 degree Celsius, approximately 10^6 cfu/g, visual turbidity
Description: The Minimum Inhibitory Concentration (MIC) of the preservative mixtures was tested. The MIC is the lowest concentration of an ingredient that will inhibit the growth of an organism. This study was conducted using the Hamilton Micro Lab AT Plus Autodilutor Liquid handling System. The programs for the auto-dilutor were based on Lonza's Standard Application Method SAPM#412-01-1. The Hamilton Autodilutor was used to dilute the starting concentrations of the preservative combination by 50% using nutrient broth in 96 well micro titer plates and also to inoculate the microorganism in the test samples. This preservatives tested were Isocil™ (a blend of methyl isothiazolinone and methyl-chloro-isothiazolinone), Benzocil™ (benzisothiazolinone) and Lonzagard™ (benzethonium chloride), all of which are available from Lonza Inc. of Fair Lawn, N.J., in various concentrations and combinations with cinnamaldehyde. Controls were also included in each test plate. […] Results were determined by checking for growth in the test samples versus the control wells on each plate (visual determination of turbidity in the wells). […] Synergism values for the Isocil™/cinnamaldehyde and Benzocil™/cinnamaldehyde combinations were calculated from the MIC values reported in Table 11 by the method described in Kull, supra, referred to above, and are set forth in Tables 12 and 13, below.

[2] = system: Candida albicans and Aspergillus niger; test: Mixed fungal challenge of preserved anionic protein shampoo (Example 5); settings: 1.0% in shampoo
Description: Each anionic shampoo sample in Table 4 below was tested as follows. A standard mixed […] solution was prepared according to the following procedure. 2 agar […] of Candida albicans and 4 agar […] of Aspergillus niger were separately incubated at about 25 EC for about 48 hours and 7 days, respectively. Each slant was washed with 3 mL of sterile 0.85% saline solution, collected and macerated in a tissue grinder. Sufficient amounts of 0.85% saline solution were added to each slant to obtain a visual count under a microscope with a Neubauer Hemocytometer of each innoculum of C. albicans and A. niger. Equal volumes of each standardized innoculum of C. albicans and A. niger were mixed together to form the standardized mixed fungal solution. 40 g of each shampoo sample was inoculated with 0.4 mL of the standardized mixed fungal solution and mixed. 1 g of the mixture was added to a sterile 20×150 mm screw cap test tube. 9 mL of sterile D/E neutralizer broth was added to the test tube and mixed to form a 10^-1 dilution. Serial dilutions were prepared through to a 10^-6 dilution with phosphate buffered water. The serial dilutions were plated onto Sabourand dextrose agar and incubated 5 days at about 25 EC. […] The anionic protein shampoo composition is described in Example 4. The shampoo samples were prepared by mixing the appropriate amounts of the preservatives and the anionic protein shampoo composition and heating the mixture to about 50 EC for about 15 minutes.

[3] = system: S. aureus (ATCC #6538), P. aeruginosa (ATCC #9027), and E. coli (ATCC #8739); test: Mixed bacterial challenge of preserved anionic protein shampoo (Examples 4 and 7); settings: 1.0% (1%) by weight in shampoo; for S. aureus, P. aeruginosa, and E. coli Day 0: Day 0, Table 3; for S. aureus, P. aeruginosa, and E. coli Day 7: Day 7, Table 3; for S. aureus, P. aeruginosa, and E. coli Day 14: Day 14, Table 3
Description: (§1) Each anionic shampoo sample in Table 3 below was tested as follows. A standardized mixed bacterial solution was prepared according to the following procedure. 3 agar stabs of S. aureus (ATCC #6538), P. aeruginosa (ATCC #9027), and E. coli (ATCC #8739) were separately incubated at about 35 EC for about 24 hours. Each stab was then washed with 3 mL of sterile 0.85% saline solution. The washes of the 3 stabs were pooled together to form an organism mixture. The absorbance of the organism mixture at 530 nm was adjusted to about 1.00 by adding saline. The spectrometer was calibrated with a saline blank. A 5 mL aliquot of the organism mixture was mixed together to produce the standardized mixed bacterial solution. Then, 40 g of each shampoo sample was inoculated with 0.2 mL of the standardized mixed bacterial solution and mixed. 1 g of the mixture was added to a sterile 20×150 mm screw cap test tube.
9 mL of sterile D/E neutralizer broth was added to the test tube and mixed to form a 10^−1 dilution. Serial dilutions were prepared through to a 10^−6 dilution with phosphate buffered water. The serial dilutions were plated onto Tryptic Soy Agar and incubated for 2 days at about 35 EC. Bacteria counts were performed after 0, 7, and 14 days.
(§2) The anionic protein shampoo composition was comprised of 35% by weight of sodium lauryl ether sulfate; 25% by weight of triethanolamine lauryl sulfate; 3% by weight coconut diethanolamide (cocamide DEA); 1% by weight of hydrolyzed collagen, available as Polypro 5000™ from Hormel Foods of Austin, Minn.; and 36% by weight of deionized water.
The cinnamaldehyde and other preservative containing samples were prepared by mixing the appropriate amounts of the preservatives and the aforementioned anionic protein shampoo composition and heating the mixture to about 50 EC for about 15 minutes.
Synergism for the cinnamaldehyde/Glydant 2000™ solutions in Table 8 against S. aureus, P. aeruginosa, and E. coli was calculated by the method described in C. E. Kull et al., A Mixtures of Quaternary Ammonium Compounds and Long-chain Fatty Acids as Antifungal Agents@, Applied Microbiology, 9:538-541 (1961). The synergism value (QA/Qa+QB/Qb) in Table 7 was determined. […] Qa is the concentration of cinnamaldehyde alone (in percent by weight) required to yield 100% retardation of the bacteria. QB is the concentration of Glydant 2000™ (in percent by weight) in the mixture, which yielded 100% retardation of the bacteria. Qb is the concentration of Glydant 2000™ alone (in percent by weight) required to yield 100% retardation of the bacteria.
When the value of (QA/Qa+QB/Qb) is less than one, the mixture is synergistic. Values for (QA/Qa+QB/Qb) of 1 and greater than 1, represent an additive effect and an antagonistic effect, respectively.

[4] = system: S. aureus (ATCC #6538), P. aeruginosa (ATCC #9027), and E. coli (ATCC #8739); test: Mixed bacterial challenge of preserved anionic protein shampoo, pH 6.5 (Example 3); settings: 0.45% w/w in shampoo; for bacteria count Day 0: pH 6.5, Day 0; for bacteria count Day 7: pH 6.5, Day 7; for bacteria count Day 14: pH 6.5, Day 14; for bacteria count Day 28: pH 6.5, Day 28
Description: as §1, with “FIGS. 1-3 were” for “Table 3 below was”
9 mL of sterile D/E neutralizer broth was added to the test tube and mixed to form a 10^−1 dilution. Serial dilutions were prepared through to a 10^−6 dilution with phosphate buffered water. The serial dilutions were plated onto Tryptic Soy Agar and incubated for 2 days at about 35 EC. […]
as §2
The antimicrobial composition containing samples were prepared by mixing the appropriate amounts of the antimicrobial ingredients and the aforementioned anionic protein shampoo composition and heating the mixture to about 50 EC for about 15 minutes.
The pH of the shampoo was adjusted to 6.5. […]

| SMILES | S. aureus, P. aeruginosa, and E. coli Day 0 [3] | S. aureus, P. aeruginosa, and E. coli Day 7 [3] | S. aureus, P. aeruginosa, and E. coli Day 14 [3] | bacteria count Day 0 [4] | bacteria count Day 7 [4] | bacteria count Day 14 [4] | also measured |
| --- | --- | --- | --- | --- | --- | --- | --- |
| O=c1[nH]sc2ccccc12 [Benzocil ™, benzisothiazolinone] | – | – | – | – | – | – | MIC for S. Aureus [1]: 9.375 ppm (active) |
| OCc1ccccc1 [Benzyl Alcohol, reference compound] | 3.0 × 10^7 cfu/g | 5.0 × 10^6 cfu/g | 5.3 × 10^6 cfu/g | – | – | – | Fungal Plate Count Day 0 ([2]; Day 0): 1.0 × 10^5 cfu/g; Fungal Plate Count Day 7 ([2]; Day 7): 6.0 × 10^3 cfu/g; Fungal Plate Count Day 14 ([2]; Day 14): 6.0 × 10^4 cfu/g |
| CC(C)=CCCC(C)=CC=O [Citral] | 3.0 × 10^7 cfu/g | 3.0 × 10^7 cfu/g | 3.0 × 10^7 cfu/g | – | – | – | – |
| C=CCc1ccc(O)c(OC)c1 [Eugenol] | 3.0 × 10^7 cfu/g | 3.0 × 10^7 cfu/g | 3.0 × 10^7 cfu/g | – | – | – | – |
| CC(C)=CCC/C(C)=C/CO [Gerniol] | 3.0 × 10^7 cfu/g | 3.0 × 10^7 cfu/g | 3.0 × 10^7 cfu/g | – | – | – | – |
| CC(C)=CCC/C(C)=C\CO [Nerol] | 3.0 × 10^7 cfu/g | 3.0 × 10^7 cfu/g | 3.0 × 10^7 cfu/g | – | – | – | – |
| C=C(C)[C@H]1CC=C(C)CC1 [d-Limonene] | 3.0 × 10^7 cfu/g | 3.0 × 10^7 cfu/g | 3.0 × 10^7 cfu/g | – | – | – | – |
| C/C=C/C=C/C(=O)[O-].[K+] [potassium sorbate] | – | – | – | 1-3 × 10^6 cfu/g | 1 × 10^5 cfu/g | 6 × 10^4 cfu/g | – |
| O=C([O-])c1ccccc1.[Na+] [sodium benzoate] | – | – | – | 1-3 × 10^6 cfu/g | 1 × 10^5 cfu/g | 7 × 10^5 cfu/g | bacteria count Day 28 [4]: <10 cfu/g |
| O=C1O[C@H]([C@H](O)CO)C([O-])=C1O.[Na+] [sodium erythorbate] | – | – | – | 1-3 × 10^6 cfu/g | >3 × 10^6 cfu/g | >3 × 10^6 cfu/g | bacteria count Day 28 [4]: >3 × 10^6 cfu/g |
